Reference: article PMC6268022, “Substituted N-Benzylpyrazine-2-carboxamides: Synthesis and Biological Evaluation ^†” (Molecules, 2012)
Values after ≈ are worked out from the molar mass of the structure shown. Read-outs that look alike come from different tables or passages of the source.

Experiments:
[1] = tested on: M. avium CNCTC My 80/72; test: In vitro antimycobacterial microdilution panel method; type: cell-based; conditions: Mycobacterium avium, 336 h; CNCTC My 80/72, pH 6.0, 14 days
[2] = tested on: M. tuberculosis H37Rv CNCTC My 331/88; test: as above; type: cell-based; conditions: Mycobacterium tuberculosis, 336 h
[3] = tested on: photosynthetic electron transport (PET) in spinach chloroplasts; test: Inhibition of photosynthetic electron transport (oxygen evolution rate) in spinach chloroplasts; type: biochemical, Spinacia oleracea L.; conditions: DCPIP photoreduction, pH 7.2
Experimental: All studied compounds were evaluated for their photosynthetic electron transport (PET) inhibition in spinach chloroplasts, which was reflected in the inhibition of oxygen evolution rate. The photosynthesis-inhibiting activity of the compounds has been expressed as IC50 values. Compounds 4, 5, 7 and 8 were not tested due to their low solubility in tested medium.
Chloroplasts were prepared from spinach (Spinacia oleracea L.) according to Masarovičová and Kráľová [31]. The inhibition of photosynthetic electron transport (PET) in spinach chloroplasts was determined spectrophotometrically (Genesys 6, Thermo Scientific, Madison, WI, USA) using an artificial electron acceptor 2,6-dichlorophenol-indophenol (DCPIP) according to Kráľová et al. and the rate of photosynthetic electron transport (PET) was monitored as a photo-reduction of DCPIP. The measurements were carried out in a phosphate buffer (0.02 mol/L, pH 7.2) containing sucrose (0.4 mol/L), MgCl2 (0.005 mol/L) and NaCl (0.015 mol/L). The chlorophyll content was 30 mg/L in these experiments and the samples were irradiated (~100 W/m^2) from a 10 cm distance with halogen lamp (250 W) using a 4 cm water filter to prevent warming of the samples (suspension temperature 22 °C). The studied compounds were dissolved in DMSO due to their limited water solubility. […] The inhibitory efficiency of the studied compounds was expressed as the IC50 values, i.e., molar concentration of the compounds causing 50% decrease in the oxygen evolution relative to the untreated control.

[4] = tested on: Trichophyton mentagrophytes 445; test: In vitro antifungal microdilution broth method; type: cell-based; conditions: RPMI 1640 pH 7.0, 35 °C; for MIC: read-out: TM MIC
Experimental: The Department of Medical and Biological Sciences at the Faculty of Pharmacy in Hradec Králové, Charles University in Prague, Czech Republic, performed the antifungal susceptibility assays, which was carried out using microdilution broth method. Compounds were dissolved in DMSO and diluted in a twofold manner with RPMI 1640 medium with glutamine buffered to pH 7.0 (3-morpholinopropane-1-sulfonic acid). […] Drug-free controls were included. […] The MICs were determined after 24 and 48 h, respectively after 72 and 120 h for Trichophyton mentagrophytes (TM), of static incubation in dark at 35 °C. Tested species: […]

[5] = tested on: M. avium CNCTC My 152/73; test: In vitro antimycobacterial microdilution panel method; type: cell-based; conditions: Mycobacterium avium, 336 h; CNCTC My 152/73, pH 6.0, 14 days
[6] = HPLC lipophilicity determination (capacity factor k / log k); conditions: RP-HPLC, C18, MeOH 70%/H2O 30%, 30 °C
Experimental: The separation process was controlled by Agilent ChemStation, version B.04.02 extended by spectral module (Agilent Technologies Inc.). A solution of MeOH (HPLC grade, 70%) with H2O (HPLC-Milli-Q Grade, 30%) was used as mobile phase. The total flow of the column was 1.0 mL/min, injection 20 µL, column temperature 30 °C. 210 nm as detection wavelength and 270 nm as monitor wavelength were chosen. The KI methanol solution was used for the dead time (TD) determination. Retention times (TR) of synthesized compounds were measured in minutes. The capacity factors k were calculated using Microsoft Excel according to formula k = (TR − TD)/TD, where TR is the retention time of the solute and TD denotes the dead time obtained via an unretained analyte. Log k, calculated from the capacity factor k, is used as the lipophilicity index converted to log P scale.

[7] = tested on: M. kansasii CNCTC My 235/80; test: In vitro antimycobacterial microdilution panel method; type: cell-based; conditions: Mycobacterium kansasii, 144 h; CNCTC My 235/80, pH 6.0, 6 days
[8] = tested on: pigment-protein complexes in photosystem 2; test: Fluorescence of chlorophyll a in spinach chloroplasts; type: biochemical, Spinacia oleracea L.; conditions: λex = 436 nm, 0-0.42 mmol/L
Source text: The effects of the studied compounds on the photosynthetic apparatus of spinach chloroplasts were investigated by studying chlorophyll a (Chla) fluorescence. […] The extent of perturbation of chlorophyll a-protein complexes in the thylakoid membrane was reflected as decreased fluorescence of the pigment (see Figure 3B). Similar decrease of Chla fluorescence in plant chloroplasts was also observed previously after treatment with substituted benzanilides and salicyanilides. The fluorescence emission spectra of chlorophyll a (Chla) and aromatic amino acids in spinach chloroplasts were recorded on fluorescence spectrophotometer F-2000 (Hitachi, Tokyo, Japan) using excitation wavelength λex = 436 nm for monitoring fluorescence of Chla and λex = 275 nm for monitoring fluorescence of aromatic amino acids, excitation slit 20 nm and emission slit 10 nm. The samples were kept in the dark 2 min before measuring. The phosphate buffer used for dilution of the chloroplast suspension was the same as described above. Due to low aqueous solubility the compounds were added to a chloroplast suspension in DMSO solution. The DMSO concentration in all samples was the same as in the control (10%). The chlorophyll concentration in chloroplast suspension was 10 mg/L.

[9] = MIC with respect to molecular weight, Šula's medium pH 6.0, 14 days, read-out: MIC M. tuberculosis H37Rv (value in parentheses)
[10] = Šula's medium pH 6.0, 37 °C, 14 days, read-out: MIC M. tuberculosis H37Rv
[11] = Trichophyton mentagrophytes, 445, 72 h, pH 7, evaluated after 72 h
[12] = Trichophyton mentagrophytes, 445, 120 h, pH 7, evaluated after 120 h

Compound | MIC [1] | MIC [2, 9] | MIC [2, 10] | IC50 [3] | MIC [4, 11] | MIC [4, 12] | MIC [5] | log k [6] | MIC [7] | chlorophyll a fluorescence emission [8] | TM MIC ([4]; evaluated after 72 h)
O=C(NCc1ccccc1)c1cnc(Cl)cn1 [Compound 1, N-Benzyl-5-chloropyrazine-2-carboxamide] | 100 µg/mL (≈ 404 µM) | 100 µM | 25 µg/mL | 1620 µM | 125 µM (≈ 31 µg/mL) | 125 µM (≈ 31 µg/mL) | 100 µg/mL (≈ 404 µM) | 0.1862 | 100 µg/mL (≈ 404 µM) | – | –
O=C(NCc1cccc(C(F)(F)F)c1)c1cnc(Cl)cn1 [Compound 2, 5-Chloro-N-(3-trifluoromethylbenzyl)pyrazine-2-carboxamide] | 25 µg/mL (≈ 79.2 µM) | 79 µM | 25 µg/mL | 346 µM | 15.6 µM (≈ 4.93 µg/mL) | 15.6 µM (≈ 4.93 µg/mL) | 100 µg/mL (≈ 317 µM) | 0.4384 | 50 µg/mL (≈ 158 µM) | decreased intensity of the emission band at 686 nm | 15.62/15.62 µmol/L
O=C(NCc1ccc(Cl)cc1)c1cnc(Cl)cn1 [Compound 3, 5-Chloro-N-(4-chlorobenzyl)pyrazine-2-carboxamide] | 100 µg/mL (≈ 354 µM) | 44 µM | 12.5 µg/mL | 604 µM | 125 µM (≈ 35.3 µg/mL) | 125 µM (≈ 35.3 µg/mL) | 100 µg/mL (≈ 354 µM) | 0.4150 | 100 µg/mL (≈ 354 µM) | – | –
COc1ccc(CNC(=O)c2cnc(Cl)cn2)cc1 [Compound 4, 5-Chloro-N-(4-methoxybenzyl)pyrazine-2-carboxamide] | 100 µg/mL (≈ 360 µM) | 90 µM | 25 µg/mL | – | 250 µM (≈ 69.4 µg/mL) | 250 µM (≈ 69.4 µg/mL) | 50 µg/mL (≈ 180 µM) | 0.1655 | 100 µg/mL (≈ 360 µM) | – | –
O=C(NCc1ccccc1)c1cncc(Cl)n1 [Compound 5, N-Benzyl-6-chloropyrazine-2-carboxamide] | 100 µg/mL (≈ 404 µM) | 50 µM | 12.5 µg/mL | – | 250 µM (≈ 61.9 µg/mL) | 500 µM (≈ 124 µg/mL) | 100 µg/mL (≈ 404 µM) | 0.2002 | 50 µg/mL (≈ 202 µM) | – | –
O=C(NCc1ccc(Cl)cc1)c1cncc(Cl)n1 [Compound 7, 6-Chloro-N-(4-chlorobenzyl)pyrazine-2-carboxamide] | 100 µg/mL (≈ 354 µM) | 44 µM | 12.5 µg/mL | – | 125 µM (≈ 35.3 µg/mL) | 125 µM (≈ 35.3 µg/mL) | 12.5 µg/mL (≈ 44.3 µM) | 0.4335 | 100 µg/mL (≈ 354 µM) | – | –
COc1ccc(CNC(=O)c2cncc(Cl)n2)cc1 [Compound 8, 6-Chloro-N-(4-methoxybenzyl)pyrazine-2-carboxamide] | 100 µg/mL (≈ 360 µM) | 22 µM | 6.25 µg/mL | – | 500 µM (≈ 139 µg/mL) | 500 µM (≈ 139 µg/mL) | 50 µg/mL (≈ 180 µM) | 0.1838 | 100 µg/mL (≈ 360 µM) | – | –
CC(C)(C)c1ncc(C(=O)NCc2ccccc2)nc1Cl [Compound 9, N-Benzyl-5-tert-butyl-6-chloropyrazine-2-carboxamide] | 25 µg/mL (≈ 82.3 µM) | 82 µM | 25 µg/mL | 7.4 µM | 250 µM (≈ 75.9 µg/mL) | 500 µM (≈ 152 µg/mL) | 50 µg/mL (≈ 165 µM) | 1.1215 | 100 µg/mL (≈ 329 µM) | – | –
CC(C)(C)c1ncc(C(=O)NCc2cccc(C(F)(F)F)c2)nc1Cl [Compound 10, 5-tert-Butyl-6-chloro-N-(3-trifluoromethylbenzyl)pyrazine-2-carboxamide] | 25 µg/mL (≈ 67.2 µM) | 16 µM | 6.25 µg/mL | 36.3 µM | 250 µM (≈ 92.9 µg/mL) | 250 µM (≈ 92.9 µg/mL) | 25 µg/mL (≈ 67.2 µM) | 1.3638 | 25 µg/mL (≈ 67.2 µM) | – | –
CC(C)(C)c1ncc(C(=O)NCc2ccc(Cl)cc2)nc1Cl [Compound 11, 5-tert-Butyl-6-chloro-N-(4-chlorobenzyl)pyrazine-2-carboxamide] | 50 µg/mL (≈ 148 µM) | 36 µM | 12.5 µg/mL | 13.4 µM | 250 µM (≈ 84.6 µg/mL) | 500 µM (≈ 169 µg/mL) | 50 µg/mL (≈ 148 µM) | 1.3511 | 50 µg/mL (≈ 148 µM) | – | –
COc1ccc(CNC(=O)c2cnc(C(C)(C)C)c(Cl)n2)cc1 [Compound 12, 5-tert-Butyl-6-chloro-N-(4-methoxybenzyl)pyrazine-2-carboxamide] | 12.5 µg/mL (≈ 37.4 µM) | 18 µM | 6.25 µg/mL | 122 µM | 250 µM (≈ 83.5 µg/mL) | 500 µM (≈ 167 µg/mL) | 6.25 µg/mL (≈ 18.7 µM) | 0.8071 | 3.12 µg/mL (≈ 9.36 µM) | – | –
OC(Cn1cncn1)(Cn1cncn1)c1ccc(F)cc1F [FLU, fluconazole, reference compound] | – | – | – | – | 1.95 µM (≈ 0.597 µg/mL) | 3.91 µM (≈ 1.2 µg/mL) | – | – | – | – | –
NNC(=O)c1ccncc1 [INH, isoniazid, reference compound] | 12.5 to 25 µg/mL (≈ 91.1 to 182 µM) | 11 µM | 1.56 µg/mL | – | – | – | 12.5 µg/mL (≈ 91.1 µM) | – | 12.5 µg/mL (≈ 91.1 µM) | – | –
NC(=O)c1cnccn1 [PZA, pyrazinamide, reference compound] | > 100 µg/mL | 50 to 101 µM | 6.25 to 12.5 µg/mL | – | – | – | > 100 µg/mL | – | > 100 µg/mL | – | –
